Values quoted from earlier work in US20220313139A1, “APPARATUSES AND METHODS FOR IDENTIFICATION AND TREATMENT OF PATIENTS RESPONSIVE TO ANTIPSYCHOTIC AGENT THERAPY” (priority 2019, published 2022).

Tests used:
patients [1] = conditions: early phase II monotherapy trial
patients [2] = conditions: clinical studies, halted
[3] = in humans

Row | Compound | dosage shown to be efficacious (patients [1]) | efficacy versus placebo as determined with PANSS total scores (patients [2]) | oral absorption and bioavailability [3]
1 | CSCC[C@H](N)C(=O)N[C@@]1(C(=O)O)CS(=O)(=O)[C@H]2[C@H](C(=O)O)[C@H]21 [poma, Pomaglumetad methionil] | 40 mg BID | not significantly more efficacious than the placebo | –
2 | N[C@@]1(C(=O)O)CS(=O)(=O)[C@H]2[C@H](C(=O)O)[C@H]21 [pomaglumetad] | – | – | low oral absorption and bioavailability
